The record followed here is patent US11517581B2, “Zika virus protease inhibitors and methods of use thereof” (priority 2017, dated 2022).

Test [1] concerns ZIKV. Briefly: MTT-based CPE inhibition assay in Vero cells. The conditions noted are these: Zika virus, 144 h, MOI 0.0002, 6 days. The test is classed as cell-based. The procedure: Briefly, Vero or Huh-7 cells (4×10^4 cells/well) were incubated with different concentrations of individual drug for 24 h, followed by the addition of 10 μl/well of 5 mg/ml MTT substrate. The monolayers were incubated as above for 4 h (away from light). Finally, 100 μl of 10% sodium dodecyl sulfate (SDS) with 0.01M HCl was added and further incubated at 37° C. with 5% CO2 overnight. […] Briefly, the drug compounds were diluted with serum-free MEM and added to confluent Vero cells in 96-well culture plates (4×10^4 cells/well) in triplicate for 2 h at 37° C. After incubation, the drug-containing media were removed, and ZIKV (multiplicity of infection, MOI=0.0002) was added together with fresh drug-compound media to each well. Following 1 h of adsorption at 37° C., the virus-compound mixture was removed and the cells were washed twice with MEM to remove unbound virus. Subsequently, media with antiviral compounds were added to the cells for further incubation for 6 days at 37° C. in a 5% CO2 humidified environment. CPE was examined by inverted light microscopy (Chan et al., 2016b). Thereafter, MTT substrate and SDS-HCl were added sequentially as mentioned above. The half maximal inhibitory concentration (IC50) and CC50 were calculated using Sigma plot (SPSS) in an Excel add-in ED50V10.

Test [2] has as its system ZIKV (Puerto Rico strain PRVABC59). Briefly: Viral load reduction assay (qRT-PCR) in Vero cells. It counts as cell-based, Zika virus.
Procedure: Viral load reduction assay and plaque reduction assay was performed for the evaluation of antiviral activity. Briefly, ZIKV-infected Vero cells (MOI=0.05) were treated with different concentrations of drugs or dimethyl sulfoxide (DMSO) control, cell culture supernatants (Vero and Huh-7) were collected at 48 hours post-infection, followed by total nucleic acid extraction and quantitative reverse transcription-PCR (qRT-PCR) as previously described with modifications (Chan et al., 2013; Chan et al., 2016b; Chan et al., 2017a). The IC50 was calculated using Sigma plot (SPSS) in an Excel add-in ED50V10. The viral load reduction assay experiments were performed in triplicate and repeated twice for confirmation.
Test [3] relates to ZIKV. Briefly: Dexamethasone-immunosuppressed mouse model of disseminated ZIKV infection. It counts as in vivo, BALB/c mice. As for the experimental part: Approval was obtained from the Committee on the Use of Live Animals in Teaching and Research of The University of Hong Kong. […] Phosphate-buffered saline (PBS) was used to dilute the virus stocks to the desired concentration, and inocula were back-titrated to verify the dose given. On the day of virus inoculation, a dose of the virus equivalent to 6×10^6 TCID50 (3.24×10^6 plaque forming units) in […] of PBS was inoculated via the intraperitoneal route into mice under ketamine (100 mg/kg) and xylazine (10 mg/kg) anesthesia. Mice in the negative-control groups were injected with the same volume of PBS. Mice were monitored three times each day for clinical signs of disease and a numerical score was assigned at each observation as previously described (Chan et al., 2016c). Three mice per group were sacrificed at 5 dpi for virological, histological, and immunohistochemistry analyses. The remaining mice were sacrificed at 14 dpi or euthanized when there was ≥20% weight loss or ≥10% weight loss with ≥1 clinical sign. Samples of major organs were collected at necropsy for virological, histological, and immunohistochemical analyzes as we previously described (Chan et al., 2016c. Chan et al., 2017b). Blood samples were also collected for RNA extraction and qRT-PCR analysis.

Structures are written as SMILES. Values after ≈ are worked out from the molar mass of the structure shown. “Also recorded” adds a separate entry of the source.

What is called IC50 is the midpoint of a concentration-inhibition curve. Turning to `CO[C@@H]1[C@@H](OC(N)=O)[C@@H](O)[C@H](Oc2ccc3c(O)c(NC(=O)c4ccc(O)c(CC=C(C)C)c4)c(=O)oc3c2C)OC1(C)C` [Novobiocin], the IC50 was determined as 53.3 ± 2.48 µg/mL (≈ 86.9 µM) in the test with ZIKV [1] and 26.1 ± 0.33 µg/mL (≈ 42.6 µM) in test [2] (Zika virus, Vero, 48 h, read-out: IC50, viral load reduction assay). Also, the “Concentration at which mean virus titer was significantly reduced (P<0.05)” value in test [2] (viral load reduction assay) is at least 25.00 µg/mL. In addition, in the test with ZIKV [3] (100 mg/kg q12 h sc 1-13 dpi, vs 0% untreated control mice, P<0.05), the Survival amounted to 100%. Besides, the “ZIKV-NS1 antigen expression in organ tissues (immunohistochemical staining)” value with ZIKV [3] (5 dpi) is reported as “minimal; also recorded: rarely detected”. Besides, in the test with ZIKV [3] (5 dpi and 14 dpi, incl. testis and kidney), the “Mean viral loads in the blood and the major organ tissues” value was “significantly reduced”. Moreover, the “Weight loss after dexamethasone withdrawal” value in the test on ZIKV [3] (ZIKV-inoculated, 100 mg/kg q12 h sc) was at most 8%. For the same compound, in the test on ZIKV [3] (ZIKV-inoculated, 100 mg/kg q12 h sc, recovered at 13-14 dpi), the “Clinical symptoms after dexamethasone withdrawal” value is listed as “minimal clinical symptoms”. Besides, in the test with ZIKV [3] (after dexamethasone withdrawal, 12 or 14 dpi), the “Inflammatory infiltrates in organ tissues (H&E)” value was “little inflammatory infiltrate; also recorded: no or mild inflammatory infiltrate, and preserved tissue architecture; also recorded: minimal inflammatory infiltrates”. The “Reduction of mean viral loads in blood and most major organ tissues vs untreated control mice” value in the test on ZIKV [3] (at both 5 dpi and 14 dpi, qRT-PCR normalized by β-actin) is given as at least 2 log.
